In ChEMBL document CHEMBL4665686, “Dehydrohispanolone Derivatives Attenuate the Inflammatory Response through the Modulation of Inflammasome Activation” (J Nat Prod, 2020):
Active and inactive are the calls of the source. The rule behind the calls is not given here.

Tests used:
[1] = molecular target: NACHT, LRR and PYD domains-containing protein 3 (Mus musculus) (UniProt Q8R4B8); details: J774.A1, dose 300.0 nM, time 45.0 min
J774.A1 = experiment: Cytotoxicity against mouse J774.A1 cells assessed as cell viability at 10 to 20 uM after 24 hrs by MTT assay; format: cell-based; details: j774.a1, 24 h, dose 10-20 µM
[2] = molecular target: NACHT, LRR and PYD domains-containing protein 3 (Mus musculus) (UniProt Q8R4B8); experiment: Inhibition of NLRP3 in mouse J774A.1 cells assessed as inhibition of LPS and nigerecin-induced IL-1beta production at 20 uM pre-stimulated with LPS for 5 hrs followed by compound treatment for 30 mins and then nigericin addition for 45 mins by ELISA; format: cell-based; details: J774.A1, time 75.0 min
[3] = molecular target: NACHT, LRR and PYD domains-containing protein 3 (Mus musculus, UniProt Q8R4B8); experiment: Inhibition of NLRP3 in mouse J774A.1 cells assessed as inhibition of LPS and nigerecin-induced IL-1beta production pre-stimulated with LPS for 5 hrs followed by compound treatment for 30 mins and then nigericin addition for 45 mins by ELISA; format: cell-based, J774.A1
NACHT, LRR and PYD domains-containing protein 3, sequence (Q8R4B8 whole entry, the tested form may be a part): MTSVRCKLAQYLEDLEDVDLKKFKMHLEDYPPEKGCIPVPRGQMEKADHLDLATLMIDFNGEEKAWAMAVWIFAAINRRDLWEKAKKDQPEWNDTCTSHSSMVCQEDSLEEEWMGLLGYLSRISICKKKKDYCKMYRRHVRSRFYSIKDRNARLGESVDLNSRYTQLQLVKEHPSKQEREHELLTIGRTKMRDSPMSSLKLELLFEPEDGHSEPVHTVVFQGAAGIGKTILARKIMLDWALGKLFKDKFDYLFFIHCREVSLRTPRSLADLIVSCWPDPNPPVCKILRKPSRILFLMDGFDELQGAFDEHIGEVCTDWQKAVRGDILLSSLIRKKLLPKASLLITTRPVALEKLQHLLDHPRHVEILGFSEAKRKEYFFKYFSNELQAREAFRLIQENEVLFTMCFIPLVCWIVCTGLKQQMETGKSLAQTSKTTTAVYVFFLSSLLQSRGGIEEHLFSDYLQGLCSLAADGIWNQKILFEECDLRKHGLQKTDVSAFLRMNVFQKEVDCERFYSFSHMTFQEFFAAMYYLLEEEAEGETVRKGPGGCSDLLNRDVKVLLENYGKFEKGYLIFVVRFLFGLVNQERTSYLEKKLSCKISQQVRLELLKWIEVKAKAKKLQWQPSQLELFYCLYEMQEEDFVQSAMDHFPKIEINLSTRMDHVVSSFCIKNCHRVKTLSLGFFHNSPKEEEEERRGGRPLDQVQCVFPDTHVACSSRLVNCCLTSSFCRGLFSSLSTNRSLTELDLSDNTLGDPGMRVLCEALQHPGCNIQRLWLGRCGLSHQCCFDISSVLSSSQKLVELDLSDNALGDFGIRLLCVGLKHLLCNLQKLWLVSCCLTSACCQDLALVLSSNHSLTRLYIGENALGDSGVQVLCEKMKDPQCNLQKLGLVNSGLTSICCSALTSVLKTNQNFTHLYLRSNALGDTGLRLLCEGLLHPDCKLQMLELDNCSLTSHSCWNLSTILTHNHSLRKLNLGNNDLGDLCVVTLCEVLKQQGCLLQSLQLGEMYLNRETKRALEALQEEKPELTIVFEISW

[4] = molecular target: NACHT, LRR and PYD domains-containing protein 3 (Mus musculus) (UniProt Q8R4B8); experiment: Inhibition of NLRP3 in mouse J774A.1 cells assessed as inhibition of LPS and nigericin-induced cleaved IL-1beta production at 20 uM pre-stimulated with LPS for 5 hrs before compound addition with ATP for 45 mins by Western blot analysis; format: cell-based; details: J774.A1
[5] = molecular target: NACHT, LRR and PYD domains-containing protein 3 (Mus musculus) (UniProt Q8R4B8); experiment: Inhibition of NLRP3 in mouse J774A.1 cells assessed as inhibition of LPS and ATP-induced IL-1beta production at 20 uM pre-stimulated with LPS for 5 hrs followed by compound treatment for 30 mins and then ATP addition for 45 mins by ELISA; format: cell-based; details: J774.A1, time 75.0 min
[6] = molecular target: NACHT, LRR and PYD domains-containing protein 3 (Mus musculus) (UniProt Q8R4B8); experiment: Inhibition of NLRP3 in mouse J774A.1 cells assessed as inhibition of LPS and MSU-induced IL-1beta production at 20 uM pre-stimulated with LPS for 5 hrs followed by compound treatment for 30 mins and then MSU addition for 24 hrs by ELISA; format: cell-based; details: J774.A1, time 24.5 hrs
[7] = molecular target: NACHT, LRR and PYD domains-containing protein 3 (Mus musculus) (UniProt Q8R4B8); experiment: Inhibition of NLRP3 in mouse J774A.1 cells assessed as inhibition of LPS-induced NO production at 20 uM measured after 24 hrs by Griess reagent; format: cell-based; details: J774.A1

NACHT, LRR and PYD domains-containing protein 3 (Mus musculus), sequence (Q8R4B8 whole entry, the tested form may be a part): as above

Compound	Activity (J774.A1)	also measured
CC(C)(O)c1coc(S(=O)(=O)NC(=O)Nc2c3c(cc4c2CCC4)CCC3)c1		inhibition [1]: Active
CC1=C(CCc2ccoc2)[C@@]2(C)CCCC(C)(C)[C@@H]2C/C1=N/OC(=O)c1ccc(C(=O)O/N=C2/C[C@H]3C(C)(C)CCC[C@]3(C)C(CCc3ccoc3)=C2C)cc1	Non-Toxic	inhibition [2]: Active; IC50 [3]: 13.8 µM; inhibition [4]: Active; inhibition [5]: Active; inhibition [6]: Active
CO/N=C1/C[C@H]2C(C)(C)CCC[C@]2(C)C(CCc2ccoc2)=C1C	Non-Toxic	
CC1=C(CCC2CCOC2)[C@@]2(C)CCCC(C)(C)[C@@H]2CC1=O (some centres undefined)	Non-Toxic	inhibition [7]: > 50%; inhibition [2]: Active
CC1=C(CCc2ccoc2)[C@@]2(C)CCCC(C)(C)[C@@H]2C/C1=N/OC(=O)N(C)C	Non-Toxic	
CC1=C(CCc2ccoc2)[C@@]2(C)CCCC(C)(C)[C@@H]2CC(=O)N1	Non-Toxic	
CCC1=C(Cc2ccoc2)C(=O)[C@@]2(C)CCCC(C)(C)[C@@H]2C1	Non-Toxic	inhibition [7]: > 50%; inhibition [2]: Active
CC1=C(CCc2ccoc2)[C@@]2(C)CCCC(C)(C)[C@@H]2C/C1=N/OC(=O)c1ccc(C(=O)O)cc1	Toxic	
CC1=C(CCc2ccoc2)[C@@]2(C)CCCC(C)(C)[C@@H]2C/C1=N/O	Non-Toxic	
CC1=C(CCc2ccoc2)[C@@]2(C)CCCC(C)(C)[C@@H]2C/C1=N/OC(=O)CCCCC(=O)O/N=C1/C[C@H]2C(C)(C)CCC[C@]2(C)C(CCc2ccoc2)=C1C	Non-Toxic	
CC(=O)O/N=C1/C[C@H]2C(C)(C)CCC[C@]2(C)C(CCc2ccoc2)=C1C	Non-Toxic	
CC1=C(CCc2ccoc2)[C@@]2(C)CCCC(C)(C)[C@@H]2C/C1=N/OC(=O)c1ccc(Br)cc1	Non-Toxic	inhibition [7]: > 50%
CC1=C(CCc2ccoc2)[C@@]2(C)CCCC(C)(C)[C@@H]2C/C1=N/OC(=O)c1cccc(C(=O)O/N=C2/C[C@H]3C(C)(C)CCC[C@]3(C)C(CCc3ccoc3)=C2C)n1	Non-Toxic	
CCCCCCCCCCCC(=O)O/N=C1/C[C@H]2C(C)(C)CCC[C@]2(C)C(CCc2ccoc2)=C1C	Non-Toxic	inhibition [2]: Active; IC50 [3]: 18.7 µM; inhibition [4]: Active; inhibition [5]: Active; inhibition [6]: Active
CC1=C(CCc2ccoc2)[C@@]2(C)CCCC(C)(C)[C@@H]2CC1=O	Toxic	
CO[C@H]1C[C@H]2C(C)(C)CCC[C@]2(C)C(CCc2ccoc2)=C1C	Non-Toxic	
CC1=C(CCc2ccoc2)[C@@]2(C)CCCC(C)(C)[C@@H]2C/C1=N/OS(=O)(=O)c1ccc(C)cc1	Non-Toxic	
CC1=C(CCc2ccoc2)[C@@]2(C)CCCC(C)(C)[C@@H]2C[C@@H]1O	Toxic	
CC1=C(CCc2ccoc2)[C@@]2(C)CCCC(C)(C)[C@@H]2CC1N (some centres undefined)	Toxic	
